{"source": "patent US11505784B2", "about": "“Cell culture medium” (BOEHRINGER INGELHEIM INTERNATIONAL GMBH, priority 2015, dated 2022)", "key": {"[1]": {"tested_on": "CHO2 (CHO-DG44) cells producing Rituximab", "conditions": "for product titer: feed medium 2 with 0.25 g/l iron citrate", "experimental": "Cell concentrations and cell viabilities were determined by the trypan blue exclusion method using a CEDEX (Type 5.00, version 2.2) automated cell analyzer (Roche Innovatis, Bielefeld, Germany). The concentrations of produced recombinant proteins in the medium, such as IgG antibodies were quantified by a Konelab 60i (Thermo Scientific, Dreieich, Germany) analyzer based on photometrical methods or by the use of a HPLC method. The Konelab 60i instrument was also used for the quantification of metabolites such as glucose, lactic acid (lactate), glutamine, glutamate, and ammonium in the cell culture supernatants. Amino acid concentrations were determined by use of a GC 6890N/FID gas chromatograph (Agilent Technologies GmbH & Co.KG, Waldbronn, Germany). Amino acid analysis was performed by the EZ-faast protocol from Phenomenex (Aschaffenburg, Germany). Osmolarity profiles were analyzed by an osmomat auto device (Gonotec GmbH, Berlin, Germany). This method is based on the cryoscopic freezing point of a particular solution, which is proportional to the amount of dissolved particles. Dissolved carbon dioxide pCO2, dissolved oxygen pO2 and pH were determined on a daily basis with a Rapidlab 248/348 instrument (Siemens Healthcare Diagnostics GmbH, Eschborn, Germany).\nThe experiment was performed in 250 ml shake flasks with a starting volume of 60 ml.\nShake flasks were incubated at 37° C. in an incubator (10% CO2 atmosphere was provided from day 0 to 3 followed by 5% CO2 for one day and 0% CO2 until the end of the cultivation). Feeding solution was added every day at a feed rate of 30 ml/L/d starting on day two. Glucose was fed on demand to maintain the actual glucose concentration between 2-4 g/l over the cultivation period. Total cells, viable cells, viability, product concentration, glucose concentration, lactic acid concentration, ammonium concentration and osmolarity were measured every second day until the end of cultivation to monitor and control the experimental progress. Experiments were performed in duplicates (N=2)."}, "[2]": {"tested_on": "CHO2 (CHO-DG44) cells producing Rituximab", "assay": "Fed-batch shake flask comparison of iron carriers in basal medium 6.2a (Example 7)", "type": "cell-based, Chinese hamster", "description": "Basal medium 6.2a is a precursor medium that is almost identical to basal medium 6.2 except for additionally comprising some non-essential cofactors and nucleotides and containing no succinic acid, putrescine at only 4.8 mg/l and a total amino acid concentration of 40 mM instead of 44 mM. Further Glutamine was added at a lower amount resulting in a ratio relative to isoleucine of 37.42.\nFeed medium 6.2a is a precursor medium that is almost identical to feed medium 6.2 except for additionally comprising some non-essential cofactors and nucleotides and slightly higher sodium bicarbonate and containing putrescine at only 33.02 mg/l and a total amino acid concentration of 511 mM instead of 508 mM. Further alanine was additionally present in the medium with a ratio relative to isoleucine of 0.15.\nExperiments were performed in duplicates (N=2)."}, "[3]": {"tested_on": "CHO2 (CHO-DG44) Rituximab cells", "conditions": "0.1 g/l (so in the source) in RPMI based basal medium 3.1; feed medium 2 with 0.25 g/l iron citrate; 2 L bioreactor", "experimental": "Cell concentrations and cell viabilities were determined by the trypan blue exclusion method using a CEDEX (Type 5.00, version 2.2) automated cell analyzer (Roche Innovatis, Bielefeld, Germany). The concentrations of produced recombinant proteins in the medium, such as IgG antibodies were quantified by a Konelab 60i (Thermo Scientific, Dreieich, Germany) analyzer based on photometrical methods or by the use of a HPLC method. The Konelab 60i instrument was also used for the quantification of metabolites such as glucose, lactic acid (lactate), glutamine, glutamate, and ammonium in the cell culture supernatants. Amino acid concentrations were determined by use of a GC 6890N/FID gas chromatograph (Agilent Technologies GmbH & Co.KG, Waldbronn, Germany). Amino acid analysis was performed by the EZ-faast protocol from Phenomenex (Aschaffenburg, Germany). Osmolarity profiles were analyzed by an osmomat auto device (Gonotec GmbH, Berlin, Germany). This method is based on the cryoscopic freezing point of a particular solution, which is proportional to the amount of dissolved particles. Dissolved carbon dioxide pCO2, dissolved oxygen pO2 and pH were determined on a daily basis with a Rapidlab 248/348 instrument (Siemens Healthcare Diagnostics GmbH, Eschborn, Germany). […]"}}, "note": "Read-outs that look alike come from different tables or passages of the source.", "data": [{"compound": "C[N+](C)(C)CCO.O=C([O-])CC(O)(CC(=O)[O-])C(=O)[O-].[Fe+2]", "note": "[iron choline citrate]", "values": [{"measurement": "osmolarity of the culture compared to equimolar iron citrate (in words)", "setting": "[1]; equimolar application, data not shown", "value": "lower osmolarity values"}]}, {"compound": "O=P([O-])([O-])[O-].[Fe+3]", "note": "[iron phosphate]", "values": [{"measurement": "product titer", "setting": "[2]; iron carrier 0.3 g/L in basal medium 6.2a, feed medium 6.2a without iron choline citrate", "value": 2.29, "unit": "g/L"}]}, {"compound": "iron citrate", "values": [{"measurement": "product titer", "setting": "[2]; parallel experiment: 0.1 g/L in basal medium 6.2a, feed medium 6.2a with 0.25 g/l iron citrate", "value": 2.38, "unit": "g/L"}, {"measurement": "product titer", "setting": "[3]", "value": 0.200, "unit": "g/L"}, {"measurement": "product titer", "setting": "[1]; 0.1 g/L in basal medium 3.1", "value": 0.184, "unit": "g/L"}, {"measurement": "product titer", "setting": "[1]; 0.2 g/L in basal medium 3.1", "value": 0.200, "unit": "g/L"}, {"measurement": "titer", "setting": "[1]; 1.0 g/L in basal medium 3.1", "value": 201, "unit": "mg/L"}, {"measurement": "product titer", "setting": "[1]; 1.0 g/L in basal medium 3.1", "value": 0.201, "unit": "g/L"}]}, {"compound": "O=P([O-])([O-])OP(=O)([O-])[O-].O=P([O-])([O-])OP(=O)([O-])[O-].O=P([O-])([O-])OP(=O)([O-])[O-].[Fe+3].[Fe+3].[Fe+3].[Fe+3]", "note": "[iron pyro phosphate]", "values": [{"measurement": "product titer", "setting": "[2]; iron carrier 1.3 g/L in basal medium 6.2a, feed medium 6.2a without iron choline citrate", "value": 2.26, "unit": "g/L"}]}]}
